Test results from patent US20250154525A1, “PLANT VIRUS MOVEMENT PROTEINS AND METHODS OF USING SAME” (Molecular Transfer, Inc., priority 2016, published 2025).
“And” between values parts separate entries of the source, which are not always exact repeats. Equal entries are not always repeated.

Key:
C2C12 Cells = experiment: GFP plasmid transfection with DOTMA/DOPE plus surface ligand peptide, fluorescent plate reader (Example 1); assay type: cell-based, mouse; conditions: DOTMA/DOPE + peptide linked to R12 or K16; EF1Alpha eGFP plasmid; 42 hours
Procedure: (§1) Cells were plated to so that on the day of transfection the cells were 70% confluent in 96 well tissue culture plates. A DOMTA/DOPE Lipid solution (1:1 molar ratio) at 2 mg/mL in water were mixed with an equal volume cell surface ligand containing adhesion peptide, the plant virus movement protein, or peptide derived therefrom, that had the nucleic acid binding moiety RRRRRRRRRRRR (SEQ ID NO:109) or KKKKKKKKKKKKKKKK (SEQ ID NO: 102) covalently linked to the N-terminus, or C-terminus of each peptide during peptide synthesis. Peptides were at 2 mg/mL in water. The DOTMA/DOPE and the solution containing the cell surface ligand containing adhesion peptide, the plant virus movement protein, or peptide derived therefrom, surface ligand peptide the was diluted 1 to 1 (v/v) in water. DOMTA/DOPE/PEPTIDE solutions were added to 0.1 mL of a plasmid DNA solution (EF1Alpha eGFP plasmid) at 10 μg/mL in OptiMEM.
(§2) All solutions were at room temperature. A volume of 0.2 mL of a 10 μg/mL solution of DNA was aliquoted into each well of a non-tissue cultured treated plate. 1-12 μL of transfection reagents were added to DNA solutions respectively. The transfection reagent and DNA solution was mixed by pipetting up and down twice. Transfection complexes were formed for 10 minutes. After 10 minutes, 0.01 or 0.02 mL of the transfection complex was added to cells. HuVEC, HeLa, human adult keratinocytes, human primary adult fibroblast, and A549 cells all respectively received 0.01 mL of the transfection complex. Human skeletal muscle cells, mouse C2C12 cells, and Jurkat, cells received 0.02 mL of the transfection complex. Cells were incubated for 42 hours at 37° C. at 5% CO2. Plates were read on a fluorescent plate reader. Cells were also examined visually under a microscope to assess the extent of transfection (in terms of the percent of cells transfected) with a fluorescent microscope. Other modes of analysis, for example quantification with B-galactocidase or luciferase reports plasmids can also be used.
(§3) Surface ligand that caused increase expression of GFP over the lipid DOTMA with no surface ligand were considered to enhance transfection or had higher % cells transfected were considered to enhance transfection. Peptides that gave greater than 2-fold enhancement are noted in bold and could be further optimized by adding different transfection enhancers or could be used with different cationic lipids or polymers.
(§4) Tables 2-7, below, provide the results of the transfection enhancements with the various cell types, while Table 8 lists the peptides that were determined by visual inspection to enhance the transfection of the denoted cell lines over the lipid DOTMA.

Jurkat Cells = experiment: as above; assay type: cell-based; conditions: DOTMA/DOPE + peptide linked to R12 or K16; EF1Alpha eGFP plasmid; 42 hours
Procedure: as §1, §2, §3, §4

NL-1 iPS Cells = experiment: as above; assay type: cell-based; conditions: DOTMA/DOPE + peptide linked to R12 or K16; EF1Alpha eGFP plasmid; 42 hours
Procedure: as §1, §2, §3, §4

HeLa Cells [1] = experiment: as above; assay type: cell-based; conditions: DOTMA/DOPE + peptide linked to R12 or K16; EF1Alpha eGFP plasmid; 42 hours
Procedure: as §1, §2, §3, §4

HuVec Cells = experiment: as above; assay type: cell-based; conditions: DOTMA/DOPE + peptide linked to R12 or K16; EF1Alpha eGFP plasmid; 42 hours
Procedure: as §1, §2, §3, §4

Human Fibroblast Cells = experiment: as above; assay type: cell-based; conditions: DOTMA/DOPE + peptide linked to R12 or K16; EF1Alpha eGFP plasmid; 42 hours
Procedure: as §1, §2, §3, §4

some examined cell types = experiment: Summary of Example 1: transfection expression and % cells transfected over the no peptide control; assay type: cell-based; conditions: on some examined cell types
Procedure: as §1, §2, §3

HeLa Cells [2] = experiment: GFP transfection with DOTMA/SEQ ID NO: 72 (fusogenic peptide)/peptide compared with Lipofectamine 2000; assay type: cell-based
Procedure: as §1, §2
The fusogenic peptide was added to the DOMTA/peptide formulation to achieve a final concentration of 0.1 mg/mL to see if transfection reagents were further enhanced by the addition of a fusogenic peptide and could provide higher transfection efficiency into HeLa cells and expression than the commercially available Lipofectamine 2000.

[3] = 0.1 μL of DOTMA/SEQ ID NO: 72/Peptide in well of a 96 well plate
[4] = 0.2 μL of DOTMA/SEQ ID NO: 72/Peptide in well of a 96 well plate
[5] = 0.3 μL of DOTMA/SEQ ID NO: 72/Peptide in well of a 96 well plate
[6] = 0.4 μL of DOTMA/SEQ ID NO: 72/Peptide in well of a 96 well plate

Row | Substance | Relative Fluorescence of Transfection of C2C12 Cells (RF) (C2C12 Cells) | Relative Fluorescence of Transfection of Jurkat Cells (RF) (Jurkat Cells) | Relative Fluorescence of Transfection of NL-1 iPS Cells (RF) (NL-1 iPS Cells) | Relative Fluorescence of Transfection of HeLa Cells (RF) (HeLa Cells [1]) | Relative Fluorescence of Transfection of HuVec Cells (RF) (HuVec Cells) | Relative Fluorescence of Transfection of Human Fibroblast Cells (RF) (Human Fibroblast Cells) | transfection expression and % cells transfected over the no peptide control (some examined cell types) | Relative Fluorescence DOTMA/SEQ ID NO: 72/Peptide, HeLa Cells (RF) (HeLa Cells [2]; [3]) | Relative Fluorescence DOTMA/SEQ ID NO: 72/Peptide, HeLa Cells (RF) (HeLa Cells [2]; [4]) | Relative Fluorescence DOTMA/SEQ ID NO: 72/Peptide, HeLa Cells (RF) (HeLa Cells [2]; [5]) | Relative Fluorescence DOTMA/SEQ ID NO: 72/Peptide, HeLa Cells (RF) (HeLa Cells [2]; [6])
1 | 359 (KAFDITYVRLKF) [compound 359] | 5693 | 1880 | 5548 | 3136 | 3024 | 3206 | increased transfection expression and the % cells transfected |  |  |  | 
2 | 332 (TWYKIAFQRNRK) [compound 332] | 537 | 3052 | 8725 | 9198 | 4221 | 5178 | increased transfection expression and the % cells transfected |  |  |  | 
3 | 502 (RNIAEIIKDI) [compound 502] | 2589 |  |  |  |  |  |  |  |  |  | 
4 | 349 (RNIAEIIKDI) [compound 349] |  | 23167 | 33103 | 4433 | 22907 | 8810 | increased transfection expression and the % cells transfected |  |  |  | 
5 | 205 (AASIKVAVSADR) [compound 205] | 2102 | 2298 | 13140 | 26368 | 8309 | 8550 | increased transfection expression and the % cells transfected |  |  |  | 
6 | 226 (ANGQTPIQRYIK) [compound 226] | 1664 | 12976 | 24920 | 7340 | 20864 | 3431 | increased transfection expression and the % cells transfected |  |  |  | 
7 | 345 (TAGSCLRKFSTMFLF) [compound 345] | 6569 | 2462 | 7836 | 8493 | 2939 | 2816 | increased transfection expression and the % cells transfected |  |  |  | 
8 | 107 (RRRRRRRR) [compound 107] |  |  | 1441 | 75 |  |  |  |  |  |  | 
9 | 371 (GPAGKDGEAGAQG) [compound 371] | 983 | 6093 | 17587 | 5180 | 10669 | 4584 |  |  |  |  | 
10 | 235 (KARSFNVNQLLQD) [compound 235] |  |  |  |  | 26940 |  |  |  |  |  | 
11 | 256 (RQVFQVAYIIIKA) [compound 256] | 3207 | 3322 | 1825 | 2243 | 3030 | 2656 | increased transfection expression and the % cells transfected |  |  |  | 
12 | 338 (GTPGPQGIA) [compound 338] | 2290 | 4475 | 17288 | 6241 | 12000 | 5625 | increased transfection expression and the % cells transfected |  |  |  | 
13 | 363 (LAGSCLARFSTM) [compound 363] | 1080 | 2432 | 4189 | 2590 | 1383 | 3008 |  |  |  |  | 
14 | 224 (KPDVRSYTITG) [compound 224] | 1469 | 13170 | 25209 | 5559 | 15945 | 5995 |  |  |  |  | 
15 | 501 (DLGTAGSCLRRFSTM) [compound 501] | 5913 | 12350 |  |  |  | 9473 | increased transfection expression and the % cells transfected | 23571 | 23993 | 20410 | 14749
16 | 335 (TVFSVDQDNMLE) [compound 335] | 4689 | 4567 | 14424 | 26954 | 6350 | 8534 |  | 12866 | 12458 | 11547 | 9753
17 | 236 (KNNQKSEPLIGRKKT) [compound 236] |  |  | 43542 and 22256 | 7202 and 5042 | 14418 | 3630 and 3000 | increased transfection expression and the % cells transfected | 5993 | 8846 | 8492 | 7316
18 | 393 (LGTIPG) [compound 393] |  |  |  |  |  |  | increased transfection expression and the % cells transfected |  |  |  | 
19 | 234 (YEKPGSPPREVVPRPRPGV) [compound 234] | 681 | 5441 | 14410 | 3867 | 13956 | 4145 |  |  |  |  | 
